Earlier results as cited in patent US20230000809A1, “TREATMENT OF DISORDERS ARISING FROM GENETIC MUTATION” (priority 2021, published 2023).
Structures can show the parent of a compound that is named as a salt.

Key:
[1] = tested on: nuclear factor kappa B (NF-κB)-dependent transcription of TNF-α induced genes; settings: human endothelial cells, in vitro
[2] = tested on: gadolinium enhancing lesions; settings: RRMS patients; after 24 weeks of treatment as compared to placebo

Row | SMILES | effect on NF-κB-dependent transcription of TNF-α induced genes [1] | number of gadolinium enhancing lesions [2]
1 | COC(=O)/C=C/C(=O)OC [DMF, dimethyl fumarate] | inhibitory effect | 
2 | COC(=O)/C=C/C(=O)OC [BG-12] |  | significant reduction
